In patent US9682993B2, “Anticancer compounds” (ST. JUDE CHILDREN'S RESEARCH HOSPITAL, priority 2012, dated 2017):

Assays:
[1] = tested on: SK-MEL-2 xenograft tumors; assay: In vivo tumor xenograft study; parameters: species or system C.B-17 scid mice
Experimental: Xenograft tumors were first established from an SK-MEL-2 cell culture at the St. Jude Children's Research Hospital Xenograft Core. After these tumors were established as a mouse xenograft model, they were routinely maintained in the C.B-17 scid strain (Taconic Farms, Germantown, N.Y.). Experimental animals were prepared by transplanting small pieces of dissected tumors from donor animals into recipient mice. All animal studies were performed in accordance with the St. Jude Children's Research Hospital Animal Care and Use Committee. SK-MEL-2 xenograft tumors were transplanted into male C.B-17 scid mice on Day −21. On Days −7 to −5, a jugular vein catheter was surgically implanted into each mouse. […] Infusions were carried out by placing the animals inside a continuous infusion system (Instech Laboratories, Plymouth Meeting, Pa.), and delivering the vehicle or drug solution via the jugular catheter at a rate of 4 μL/min with a SP230iw syringe pump (WPI, Sarasota, Fla.). […] Tumors were continuously measured during and after infusion periods, 5 times per week (weekdays). Tumor volumes were determined based on the following equation: Tuvol=(δ1/2+δ2/2)^1.5708, where δ1 and δ2 are diameters measured with a caliper at right angles of each other. The size of the tumors ranged from 0.2 to 0.5 cm^3 at the times the infusions were initiated.
The efficacy of compound 20 in the inhibition of tumor growth in mice was evaluated using the methods as described herein above. Thus, SK-MEL-2 tumors were transplanted into male C.B-17 scid mice. The animals were subsequently infused over 4 h with either vehicle (8 mice) or compound 20 (9 mice) for 5 consecutive days.

HeLa = assay: Drug combination assay, HeLa; type: cell-based; settings: HeLa cells; combined with AUDA (15 μM)
Experimental: Preliminary cytotoxic screenings for each drug used in drug combination assays were performed to determine their cytotoxic dose range. […] Eight concentrations were established by 1:3 serial dilutions of the single drugs and their combinations with the splicing modulators. All drug concentrations were evaluated in triplicate in 96-well cell culture plates. Assays of individual drugs and drug combinations were run on the same tissue culture plate. Cell viability was determined using the CellTiter-Glo reagent. Drug interactions, in terms of synergism, additive effect, or antagonism, were based on the drugs' Combination Index (CI) (Chou et al., Adv. Enzyme Regul. 1984, 22, 27).
Luminescence data obtained from the cell viability determinations were formatted per the requirements of the analytical software (viability data range: >0 and <1). The formatted data were analyzed with the software CalcuSyn 2.1 (Biosoft, Cambridge, UK), which provides quantitative CI values for the drug interaction analyses (see ranges in Supplementary Table S2). […] Therefore, in these two cases the drug interaction was evaluated by comparing the IC50 value of Sudemycin with that of the IC50 values resulting from the serial dilutions of the splicing modulator combined with a constant dose of the non-toxic drug.

[2] = Maximum tolerated dose study (weight loss); type: in vivo, C.B-17 scid mice; settings: 50 mg/kg four hour infusion daily for five days; day 5 of infusion
Experimental: Xenograft tumors were first established from an SK-MEL-2 cell culture at the St. Jude Children's Research Hospital Xenograft Core. After these tumors were established as a mouse xenograft model, they were routinely maintained in the C.B-17 scid strain (Taconic Farms, Germantown, N.Y.). Experimental animals were prepared by transplanting small pieces of dissected tumors from donor animals into recipient mice. All animal studies were performed in accordance with the St. Jude Children's Research Hospital Animal Care and Use Committee. SK-MEL-2 xenograft tumors were transplanted into male C.B-17 scid mice on Day −21. On Days −7 to −5, a jugular vein catheter was surgically implanted into each mouse. […] Tumors were continuously measured during and after infusion periods, 5 times per week (weekdays). Tumor volumes were determined based on the following equation: Tuvol=(δ1/2+δ2/2)^1.5708, where δ1 and δ2 are diameters measured with a caliper at right angles of each other. […]
The in vivo effects, e.g. weight loss, of compound 20 were evaluated in mice using the methods described herein above. […] Weight of the test animals was determined daily (5 weight measurements/week). […]

[3] = 50 mg/kg over 4 h, once a day for 5 days

CNC(=O)O[C@@H](C)/C=C\C(=O)N[C@H]1CC[C@@H](C/C=C(C)/C=C/[C@@H]2C[C@]3(CO3)CC(C)(C)O2)CC1 [compound 20, (S,Z)-5-(((1R,4R)-4-((2E,4E)-5-((3R,5S)-7,7-Methyl-1,6-Dioxaspiro[2.5]Octan-5-Yl)-3-Methylpenta-2,4-Dien-1-Yl)Cyclohexyl)Amino)-5-Oxopent-3-En-2-Yl Methylcarbamate]
inhibition of tumor growth during the infusion period [1, 3]: 100%
inhibition of tumor growth subsequent to the dosing period [1, 3]: significant inhibition
fatalities or behavioral changes versus control infusion ([1]; infusion over 4 h for 5 consecutive days): No differences in fatalities or behavioral changes
effect of soluble epoxide hydrolase inhibition on IC50 (HeLa): improves the IC50
average weight loss [2]: 12.7%
